What was measured:
[1] = tested on: orthotopic PANC-1/Luc+ pancreatic tumor BALB/c nude mice; assay: PET/CT imaging of orthotopic pancreatic tumor model; assay type: in vivo; conditions: L4 at 24 h post-injection; FDG at 1 h post-injection, same mouse
Procedure: The establishment of the tumor in the orthotopic pancreatic tumor models was confirmed at 13 days post-inoculation of PANC-1/Luc+ cells into the pancreas tail with bioluminescence imaging using D-luciferin (60 mg/kg). The next day, [^18F]FDG-PET/CT (FDG: fluorodeoxyglucose) imaging was performed at 1 h post-injection (7.4 MBq/mouse) for 20 min.
Two days after [^18F]FDG imaging, [^124I]L4 (6.3-9.3 MBq in 200 μL PBS) was administered into the tail vein of the same mouse and PET/CT images were acquired at 1, 4, and 24 h post-injection.

[2] = Ex vivo cleavage in spleen homogenate; assay type: in vitro ADME, mouse; conditions: 4 h and 24 h
Source text: Liver, spleen, and tumor tissues were collected and weighted.

[3] = Lipophilicity (log P) of the radiotracer; assay type: physicochemical
[4] = In vitro metabolism with mouse liver microsome; assay type: in vitro ADME; conditions: 4 h incubation
Procedure: (§1) For the in vitro metabolic studies with mouse liver S9 fraction and microsome, 1-3 (3.7 MBq) were dissolved in PBS with 10% DMSO and mixed with the mouse liver S9 fraction (0.2 mg in 10 μL) or the microsome (0.2 mg in 10 μL) with NADPH (0.25 mM). The reaction was performed upon shaking at 550 rpm at 37° C. The hydrolysis rate of each radiotracer was measured by radio-TLC for up to 24 h.

[5] = In vitro metabolism with mouse liver S9 fraction; assay type: in vitro ADME; conditions: 4 h incubation
Procedure: as §1

normal BALB/c mice = assay: Urinary and fecal excretion of radioactive metabolites; assay type: in vivo, mouse
[6] = Ex vivo cleavage in liver homogenate
Procedure: Ex vivo studies to determine the cleavage rates of the examined radiotracers in different organs were performed using the homogenates of mouse tissues collected from CT26 tumor models. Liver, spleen, and tumor tissues were collected and weighted. After the addition of ice-cold PBS solution at a ratio of 1:1 (w/w), the tissues were homogenized with a homogenizer (Ultra-Turrax, IKA, Selangor, Malaysia) under ice-cold conditions. The crude homogenate was then centrifuged at 2,000 g, and the sediment was discarded. Each supernatant (300 μL), referred to as tissue homogenate, was immediately mixed with each radiotracer (3.7 MBq) dissolved in PBS with 10% DMSO. The reaction was then performed upon shaking at 550 rpm at 37° C., and the hydrolysis rate of each radiotracer was measured by radio-TLC for up to 24 h. […] Urine and fecal samples were collected separately at 0.5, 1, 2, 4, 8, 16, and 24 h post-injection, and their radioactivity was measured with a dose calibrator (CRC-Ultra; Capintec, Florham Park, NJ, USA). […] The same urine sample was further analyzed by HPLC [Luna C8 column (4.6×50 mm, 5 μm), 0.1% TFA/H2O (solventA), and 0.1% TFA/acetonitrile (solvent B)] using a gradient of 10-100% B in 5 min and 10% B for 27 min, which continued for up to 45 min at a flow rate of 1 mL/min.

porcine liver esterase = assay: Esterase enzymatic assay (radio-TLC cleavage); assay type: in vitro ADME; conditions: 37 C
Procedure: The in vitro metabolism studies were performed using 25 U/mL solutions of porcine liver esterase in PBS. [^131I]HIB (1), [^131I]IPH (2), or [^131I]HIB-ether (3) (3.7 MBq each) was also dissolved in PBS with 10% DMSO. Esterase (2.5 U) was then added to each radiotracer solution, and the solution was gently shaken at 37° C.
With these hypotheses in mind, we performed systematic mechanistic studies. First, we carried out an esterase enzymatic assay. All three radiotracers, [^131I]HIB, [^131I]IPH, and [^131I]HIB-ether, were incubated separately with esterase (Sigma Aldrich, St. Louis, MO, USA) at 37° C. in a 10% DMSO/PBS mixture, and the progress of the reactions was monitored for 24 h by radio-TLC (FIG. 3A).

cleavage percentage (porcine liver esterase; 4 h) [%] | cleavage percentage (porcine liver esterase; 24 h) [%] | Molecule | tumor detection in PET image [1] | cleavage rate lower than in the liver [2] [%] | log P [3] | cleavage percentage [4] [%] | cleavage percentage [5] [%] | radioactivity in the feces relative to that in urine (normal BALB/c mice; after i.v. [131I]HIB-liposome) | metabolite found in urine (normal BALB/c mice; urine 3 h post-injection, radio-TLC and HPLC) | cleavage ([6]; 4 h) [%] | cleavage ([6]; 24 h) [%]
– | – | fluorodeoxyglucose [[^18F]FDG] | the tumor could barely be detected | – | – | – | – | – | – | – | –
– | – | CCCCCCCCCCCCCCCCOC(=O)c1ccc([131I])cc1 [[^131I]HIB] | – | ~18 | 2.19±0.04 | 85.3 | 89.7 | less than 5% | 4-[^131I]iodobenzoic acid | ~75 | ~88
15.9 | 20.3 | CCCCCCCCCCCCCCCCOc1ccc(I)cc1 [[^131I]HIB-ether, 1-(hexadecyloxy)-4-[^124/131I]iodobenzene] | – | – | – | 16.0 | 19.3 | – | – | 23 | 25
– | – | CCCCCCCCCCCCCCCCC(=O)Oc1ccc([131I])cc1 [[^131I]IPH, 4-[^124/131I]iodophenyl heptadecanoate] | – | ~18 | – | 87.3 | 91.3 | – | – | ~75 | ~88

— US20240336632A1, “NOVEL COMPOUND COMPRISING ESTER GROUP AND USES THEREOF” (priority 2021, published 2024)
